The supplement of paper PMC8960247
Where a name gives a salt, the structure may show the parent alone. ± gives the standard error.

Key:
[1] = system: 621-102 (TSC2-deficient); assay: relative viability vs DMSO; higher = less cytotoxic; conditions: serum: 10% FBS, 72 h
[2] = system: 621-103 (TSC2-rescued); assay: as above; conditions: serum: 10% FBS, 72 h
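Further: immortalized renal angiomyolipoma cells stably carrying empty vector or TSC2, dosed in 384-well plates in DMEM, viability normalized to vehicle-treated wells within each plate.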

Row | Compound | relative viability ([1]; 0.0001 µM) [%] | relative viability ([1]; 0.001 µM) [%] | relative viability ([1]; 0.01 µM) [%] | relative viability ([1]; 0.1 µM) [%] | relative viability ([1]; 1 µM) [%] | relative viability ([1]; 10 µM) [%] | relative viability ([2]; 0.0001 µM) [%] | relative viability ([2]; 0.001 µM) [%] | relative viability ([2]; 0.01 µM) [%] | relative viability ([2]; 0.1 µM) [%] | relative viability ([2]; 1 µM) [%] | relative viability ([2]; 10 µM) [%]
1 | COc1ccccc1N1CCN(CC(O)COc2cccc3ccccc23)CC1 (stereo not drawn) [Naftopidil] | 106 ± 5.7 | 99.4 ± 2.5 | 101.3 ± 0.6 | 106 ± 5 | 104.5 ± 1 | 97.38 ± 0.86 | 114 ± 4.2 | 111.6 ± 0.22 | 112 ± 1.2 | 108 ± 1.9 | 102.2 ± 0.57 | 107 ± 2.7
2 | c1ccc2c(CC3=NCCN3)cccc2c1 [Naphazoline HCl] | 122 ± 2.4 | 109 ± 2.6 | 117 ± 3 | 111 ± 3.6 | 106.3 ± 0.15 | 112 ± 1.5 | 103 ± 2 | 105.1 ± 0.24 | 103 ± 1.7 | 99.2 ± 5.5 | 104 ± 0.12 | 101.3 ± 0.62
3 | OC(CNCC(O)C1CCc2cc(F)ccc2O1)C1CCc2cc(F)ccc2O1 (stereo not drawn) [Nebivolol HCl] | 81.745 ± 0.015 | 103 ± 2.9 | 106 ± 1.1 | 118 ± 7.1 | 106 ± 2.9 | 77.1 ± 11 | 86.6 ± 8.6 | 116.1 ± 0.89 | 114.3 ± 0.92 | 120 ± 2.8 | 108 ± 4.2 | 36.4 ± 5.6
4 | CN(C)C(=O)Oc1cccc([N+](C)(C)C)c1 [Neostigmine bromide (Prostigmin)] | 103 ± 4.6 | 114 ± 3 | 104.2 ± 0.97 | 102 ± 7.2 | 102 ± 6 | 101.3 ± 0.82 | 92.6 ± 3.7 | 93.3 ± 2.9 | 93.6 ± 1.3 | 95.7 ± 2.7 | 93.8 ± 2.1 | 92.44 ± 0.58
5 | CCOc1cc2ncc(C#N)c(Nc3ccc(OCc4ccccn4)c(Cl)c3)c2cc1NC(=O)/C=C/CN(C)C [Neratinib] | 110 ± 1.2 | 103 ± 1.1 | 117.5 ± 0.44 | 103.9 ± 0.36 | 88.058 ± 0.084 | 50.9 ± 0.56 | 101.7 ± 0.83 | 99.12 ± 0.5 | 100.4 ± 0.55 | 96 ± 2.1 | 67.12 ± 0.38 | 41.08 ± 0.095
6 | Cc1cn(-c2cc(NC(=O)c3ccc(C)c(Nc4nccc(-c5cccnc5)n4)c3)cc(C(F)(F)F)c2)cn1 [Nilotinib] | 70 ± 0.81 | 71.8 ± 7.4 | 70.7 ± 6.9 | 96.2 ± 7.2 | 93 ± 6.9 | 18.9 ± 7.6 | 82.55 ± 0.76 | 82.1 ± 1.1 | 89 ± 1.5 | 90.4 ± 1.4 | 84.5 ± 4.6 | 7.52 ± 0.28
7 | COC(=O)C1=C(C)NC(C)=C(C(=O)OCC(C)C)C1c1ccccc1[N+](=O)[O-] (stereo not drawn) [Nisoldipine] | 100 ± 4.6 | 95.6 ± 4.7 | 104.6 ± 0.62 | 106.7 ± 0.045 | 111 ± 2.9 | 65.91 ± 0.65 | 110 ± 5.8 | 109 ± 7.6 | 108 ± 4 | 111 ± 6.1 | 100 ± 2.3 | 67.8 ± 4.5
8 | CNC(=C[N+](=O)[O-])NCCSCc1csc(CN(C)C)n1 [Nizatidine] | 102 ± 3 | 100.7 ± 0.45 | 101 ± 2.1 | 95.8 ± 1.8 | 106 ± 3.8 | 103 ± 1.6 | 102.5 ± 0.9 | 92.2 ± 3.2 | 101 ± 4.2 | 97.2 ± 1.6 | 102 ± 3.1 | 98.5 ± 4.4
9 | CO[C@@H]1[C@@H](OC(N)=O)[C@@H](O)[C@H](Oc2ccc3c(O)c(NC(=O)c4ccc(O)c(CC=C(C)C)c4)c(=O)oc3c2C)OC1(C)C [Novobiocin sodium (Albamycin)] | 97.5 ± 4.2 | 94.9 ± 2.2 | 99 ± 4 | 112 ± 1.2 | 107 ± 6.3 | 105 ± 4.1 | 104 ± 1.3 | 104.4 ± 0.12 | 102 ± 3.3 | 98.6 ± 2.8 | 105 ± 4.4 | 98.5 ± 3.8
10 | COc1cccc2cc(-c3nc([C@H]4CC[C@H](C(=O)O)CC4)n4ncnc(N)c34)[nH]c12 [OSI-027] | 79.6 ± 8.2 | 88.5 ± 5.6 | 91.5 ± 7 | 90 ± 1.8 | 77.9 ± 2.4 | 25.2 ± 0.58 | 105 ± 2.6 | 101.3 ± 0.67 | 100.8 ± 0.85 | 94.6 ± 4.2 | 81.7 ± 4.1 | 32.3 ± 0.85
11 | C#Cc1cccc(Nc2ncnc3cc(OCCOC)c(OCCO)cc23)c1 [OSI-420] | 118 ± 6.5 | 106.9 ± 0.52 | 103 ± 0.19 | 95.9 ± 4 | 115 ± 2.9 | 95.8 ± 1.9 | 102.2 ± 0.8 | 101.12 ± 0.0035 | 106.2 ± 0.97 | 100 ± 1.9 | 101.78 ± 0.034 | 74.8 ± 1.7
12 | O=C(Nc1ccc(OC(F)(F)F)cc1)c1sccc1NCc1ccnc2ccccc12 [OSI-930] | 84 ± 2.4 | 116 ± 2.3 | 114 ± 4.7 | 111.7 ± 0.23 | 112 ± 1.4 | 108 ± 5 | 95.6 ± 0.43 | 106 ± 1.1 | 108 ± 3.1 | 108 ± 1.7 | 103 ± 1.7 | 100.9 ± 0.9
13 | Cc1cc2c(s1)Nc1ccccc1N=C2N1CCN(C)CC1 [Olanzapine (Zyprexa)] | 108 ± 1.3 | 105 ± 3.1 | 110 ± 2.6 | 115 ± 5.1 | 108 ± 1.7 | 105 ± 4.6 | 103 ± 3 | 100.7 ± 0.71 | 102 ± 4 | 104.8 ± 1 | 96.8 ± 2.5 | 95.1 ± 1.2
14 | CN(C)CC/C=C1/c2ccccc2COc2ccc(CC(=O)O)cc21 [Olopatadine HCl (Opatano)] | 114 ± 2.8 | 114 ± 2.6 | 108 ± 1.5 | 113 ± 3.7 | 105 ± 1.6 | 97.2 ± 6.5 | 104 ± 5 | 103 ± 5.9 | 97 ± 4 | 102 ± 1.3 | 98.51 ± 0.44 | 103 ± 4.8
15 | Cc1cc(C(C)(C)C)c(O)c(C)c1CC1=NCCN1 [Oxymetazoline HCl] | 120 ± 4.5 | 116 ± 4.1 | 112 ± 2 | 107 ± 4.2 | 113.2 ± 0.75 | 103 ± 2.8 | 99.9 ± 0.63 | 96.5 ± 1.5 | 99.3 ± 6 | 98.5 ± 5 | 103 ± 4.4 | 98.8 ± 3.1
16 | O=C(O)/C=C/c1ccc(Cn2ccnc2)cc1 [Ozagrel] | 100 ± 3.7 | 108 ± 3.7 | 105 ± 2.5 | 110 ± 5.1 | 102.8 ± 0.53 | 95.1 ± 4.6 | 107 ± 1.8 | 112 ± 1.7 | 98.4 ± 2.8 | 104 ± 3.1 | 106 ± 2.4 | 103 ± 1.1
17 | O=C(Nc1cccnc1)N1CCC(Cc2cccc(Oc3ccc(C(F)(F)F)cn3)c2)CC1 [PF-3845] | 104 ± 3.4 | 103 ± 2.9 | 104 ± 1.5 | 102.11 ± 0.087 | 102 ± 3.6 | 98.8 ± 1.6 | 110 ± 5.4 | 116 ± 8.3 | 112.64 ± 0.013 | 109 ± 4.7 | 116.1 ± 0.73 | 103 ± 1.1
18 | Oc1cccc(-c2nc(N3CCOCC3)c3oc4ncccc4c3n2)c1 [PI-103] | 105 ± 1.1 | 92.1 ± 7.2 | 95.5 ± 3.6 | 103 ± 1.9 | 91.8 ± 3.4 | 37.66 ± 0.19 | 112 ± 1.2 | 95.6 ± 3.2 | 101.2 ± 0.72 | 102.5 ± 0.82 | 83.4 ± 2.7 | 38 ± 0.63
19 | COc1ccc2c3n(c(=NC(=O)c4cccnc4)nc2c1OC)CCN3 [PIK-90] | 85.1 ± 3.9 | 107 ± 4.7 | 110 ± 2.5 | 112 ± 1.5 | 110 ± 1.3 | 96.7 ± 1.5 | 99 ± 1.5 | 99.75 ± 0.35 | 97.73 ± 0.84 | 97.82 ± 0.96 | 97.97 ± 0.66 | 73.4 ± 6.5
